Experimental data from ChEMBL document CHEMBL3396974, “Synthetic approaches, functionalization and therapeutic potential of quinazoline and quinazolinone skeletons: the advances continue” (Eur J Med Chem, 2015).
In brackets after ≈: the same amount, converted by molar mass.

How the values were obtained:
Escherichia coli [1] = experiment: Antibacterial activity against Escherichia coli MTCC 739; type: functional
Candida albicans = experiment: Antifungal activity against Candida albicans MTCC 183; type: functional
Pseudomonas aeruginosa [2] = experiment: Antibacterial activity against Pseudomonas aeruginosa MTCC 741; type: functional
Saccharomyces cerevisiae = experiment: Antifungal activity against Saccharomyces cerevisiae; type: functional
Staphylococcus aureus [3] = experiment: Antibacterial activity against Staphylococcus aureus MTCC 96; type: functional
Bacillus subtilis = experiment: Antibacterial activity against Bacillus subtilis; type: functional
[4] = target: T1, Pro-cathepsin H (Homo sapiens) (UniProt P09668); experiment: Inhibition of Cathepsin H (unknown origin) at 0.25 x 10^-4 M
T1 sequence (whole entry): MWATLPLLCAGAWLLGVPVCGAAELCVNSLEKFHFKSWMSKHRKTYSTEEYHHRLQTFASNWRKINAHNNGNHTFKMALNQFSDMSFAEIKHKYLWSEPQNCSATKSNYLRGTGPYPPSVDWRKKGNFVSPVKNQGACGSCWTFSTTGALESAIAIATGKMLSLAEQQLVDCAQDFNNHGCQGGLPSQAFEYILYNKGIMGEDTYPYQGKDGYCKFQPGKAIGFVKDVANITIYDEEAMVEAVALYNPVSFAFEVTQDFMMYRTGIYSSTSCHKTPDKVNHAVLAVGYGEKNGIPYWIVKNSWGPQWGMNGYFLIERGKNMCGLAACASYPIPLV

Mus musculus = organism: Mus musculus; experiment: Anticonvulsant activity in mouse assessed as protection against maximal electroshock-induced seizures; type: functional
[5] = target: T1, Pro-cathepsin H (Homo sapiens); experiment: Inhibition of Cathepsin H (unknown origin) at 1 x 10^-4 M
[6] = target: Epidermal growth factor receptor (Homo sapiens, UniProt P00533); experiment: Inhibition of EGFR (unknown origin)
[7] = Photocytotoxicity activity against human HL60 cells measured after UV irradiation; type: functional; conditions: HL-60, light or radiation study
Staphylococcus aureus [8] = experiment: Antibacterial activity against Staphylococcus aureus assessed as zone of inhibition; type: functional
Escherichia coli [9] = experiment: Antibacterial activity against Escherichia coli assessed as zone of inhibition; type: functional
[10] = system: Mycobacterium tuberculosis; experiment: Antimycobacterial activity against Mycobacterium tuberculosis H37Rv; type: functional
Staphylococcus aureus [11] = experiment: Antibacterial activity against methicillin-resistant Staphylococcus aureus; type: functional
[12] = Cytotoxicity against human PC3 cells assessed as inhibition of cell growth; type: functional, cell-based; conditions: PC-3
Dihydrofolate reductase = target: T2, Dihydrofolate reductase (Homo sapiens, UniProt P00374); experiment: Inhibition of DHFR (unknown origin)
T2 sequence (P00374 whole entry): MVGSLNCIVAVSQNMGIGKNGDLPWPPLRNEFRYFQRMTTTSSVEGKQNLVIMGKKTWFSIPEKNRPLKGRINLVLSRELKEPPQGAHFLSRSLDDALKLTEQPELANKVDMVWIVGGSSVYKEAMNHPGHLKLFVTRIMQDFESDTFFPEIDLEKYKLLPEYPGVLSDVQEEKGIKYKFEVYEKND

[13] = target: Cathepsin B (Homo sapiens) (UniProt P07858); experiment: Inhibition of Cathepsin B (unknown origin) at 0.50 x 10^-4 M
[14] = Cytotoxicity against human PC3 cells by MTT assay; type: functional, cell-based; conditions: PC-3
HUVEC [15] = experiment: Inhibition of cell adhesion in HUVEC at 15 uM after 3 hrs at 37 degC; type: functional; conditions: Homo sapiens
SMMC-7721 = experiment: Cytotoxicity against human SMMC7721 cells by MTT assay; type: functional, cell-based
HUVEC [16] = experiment: Inhibition of cell adhesion in HUVEC at 30 uM after 3 hrs at 37 degC; type: functional; conditions: Homo sapiens
[17] = Cytotoxicity against human CNE2 cells by MTT assay; type: functional, cell-based; conditions: CNE-2
Pseudomonas aeruginosa [18] = experiment: Antibacterial activity against Pseudomonas aeruginosa MTCC 741 assessed as zone of inhibition; type: functional
Klebsiella pneumoniae [19] = experiment: Antibacterial activity against Klebsiella pneumoniae MTCC 109 assessed as zone of inhibition; type: functional
Bacillus cereus [20] = experiment: Antibacterial activity against Bacillus cereus MTCC 430 assessed as zone of inhibition; type: functional
Staphylococcus aureus [21] = experiment: Antibacterial activity against Staphylococcus aureus MTCC 96 assessed as zone of inhibition; type: functional
Bacillus cereus [22] = experiment: Antibacterial activity against Bacillus cereus MTCC 430; type: functional
Klebsiella pneumoniae [23] = experiment: Antibacterial activity against Klebsiella pneumoniae MTCC 109; type: functional
[24] = target: Cathepsin B (Homo sapiens) (UniProt P07858); experiment: Inhibition of Cathepsin B (unknown origin) at 0.1 x 10^-4 M
[25] = target: Cathepsin B (Homo sapiens) (UniProt P07858); experiment: Inhibition of Cathepsin B (unknown origin) at 1 x 10^-4 M
[26] = Antiproliferative activity against human breast cancer cells; type: functional, cell-based; conditions: Cancer cell lines
[27] = Antiproliferative activity against human colon cancer cells; type: functional, cell-based; conditions: Cancer cell lines
[28] = Antiproliferative activity against human lung cancer cells; type: functional, cell-based; conditions: Cancer cell lines

Sequence of Epidermal growth factor receptor (P00533 whole entry): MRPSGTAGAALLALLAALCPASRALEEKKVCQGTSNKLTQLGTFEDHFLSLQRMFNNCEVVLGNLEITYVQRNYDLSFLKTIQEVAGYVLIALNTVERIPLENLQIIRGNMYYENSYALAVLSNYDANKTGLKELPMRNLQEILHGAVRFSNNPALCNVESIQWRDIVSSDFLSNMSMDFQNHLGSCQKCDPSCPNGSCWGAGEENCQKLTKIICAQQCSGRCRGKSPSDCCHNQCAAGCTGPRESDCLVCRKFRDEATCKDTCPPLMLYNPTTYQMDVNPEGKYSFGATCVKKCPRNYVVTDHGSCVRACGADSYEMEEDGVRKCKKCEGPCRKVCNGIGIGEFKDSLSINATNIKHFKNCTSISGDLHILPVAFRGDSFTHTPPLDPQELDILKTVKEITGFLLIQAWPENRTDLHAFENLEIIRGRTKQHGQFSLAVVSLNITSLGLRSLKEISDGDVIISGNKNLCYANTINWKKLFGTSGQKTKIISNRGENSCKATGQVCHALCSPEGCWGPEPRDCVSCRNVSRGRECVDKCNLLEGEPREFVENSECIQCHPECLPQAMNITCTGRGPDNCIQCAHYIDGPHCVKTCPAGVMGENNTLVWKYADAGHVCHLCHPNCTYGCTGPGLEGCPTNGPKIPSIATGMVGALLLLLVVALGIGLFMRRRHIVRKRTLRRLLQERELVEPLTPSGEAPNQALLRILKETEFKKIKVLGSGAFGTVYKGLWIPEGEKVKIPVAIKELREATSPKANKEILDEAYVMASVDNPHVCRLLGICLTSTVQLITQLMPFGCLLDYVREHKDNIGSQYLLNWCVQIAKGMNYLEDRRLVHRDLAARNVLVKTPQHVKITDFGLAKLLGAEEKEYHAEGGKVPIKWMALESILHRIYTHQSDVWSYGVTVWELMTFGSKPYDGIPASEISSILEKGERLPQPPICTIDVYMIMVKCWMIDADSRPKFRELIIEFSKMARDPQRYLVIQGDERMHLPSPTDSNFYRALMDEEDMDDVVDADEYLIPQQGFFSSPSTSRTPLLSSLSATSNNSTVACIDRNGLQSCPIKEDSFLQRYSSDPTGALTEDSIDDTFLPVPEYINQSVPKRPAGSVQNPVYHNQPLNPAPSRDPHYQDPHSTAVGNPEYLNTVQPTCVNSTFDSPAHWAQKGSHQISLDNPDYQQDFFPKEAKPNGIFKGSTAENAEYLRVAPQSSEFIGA

SMILES: O=c1c2ccccc2nc(-c2ccc(Cl)cc2)n1Cc1ccccc1
- MIC (Escherichia coli [1]): 25.1 µg/mL (≈ 72.4 µM)
- MIC (Candida albicans): 26.1 µg/mL (≈ 75.3 µM)
- MIC (Pseudomonas aeruginosa [2]): 30.1 µg/mL (≈ 86.8 µM)
- MIC (Saccharomyces cerevisiae): 18.3 µg/mL (≈ 52.8 µM)
- MIC (Staphylococcus aureus [3]): 25.6 µg/mL (≈ 73.8 µM)
- MIC (Bacillus subtilis): 24.3 µg/mL (≈ 70.1 µM)

SMILES: CN(C)c1ccc(/C=C2\CCCC3=C2NC(=S)NC3c2ccc(N(C)C)cc2)cc1 (centres undefined)
- inhibition [4]: 100%

SMILES: COc1cc2nc(/C=C/c3ccccc3Cl)n(-c3ccc(Br)cc3)c(=O)c2cc1OC
- ED50 (Mus musculus): 41.3 µmol/kg

SMILES: CN(C)c1ccc(/C=C2\CCCC3=C2NC(=O)NC3c2ccc(N(C)C)cc2)cc1 (centres undefined)
- inhibition [5]: 100%

SMILES: COc1cc2nc(/C=C/c3ccccc3Cl)n(-c3ccc([N+](=O)[O-])cc3)c(=O)c2cc1OC
- ED50 (Mus musculus): 41.3 µmol/kg

SMILES: Clc1cc(Nc2ncnc3ccc(NC4=NC[C@H](COc5ccccc5)O4)cc23)ccc1OCc1nccs1
- IC50 [6]: 1210 nM

SMILES: CC1(C)CC(=O)C2=C(C1)N=C1Sc3ccccc3N1C2c1ccc(C(F)(F)F)cc1 (centres undefined)
- GI50 [7]: 900 nM

SMILES: Oc1ccc(/C=N/NC2=NC3=C(CCCC3)C(c3ccccc3)N2)cc1 (centres undefined)
- inhibition zone (IZ) (Staphylococcus aureus [8]): 18 mm
- inhibition zone (IZ) (Escherichia coli [9]): 17 mm

SMILES: COc1cc2nc(/C=C/c3ccccc3Cl)n(-c3ccncc3)c(=O)c2cc1OC
- ED50 (Mus musculus): 66.4 µmol/kg

SMILES: Cc1cccc(Oc2nc(-c3ccc(NC(=S)Nc4ccc(Br)cc4)cc3)nc3ccccc23)c1
- inhibition (INH) [10]: 99%
- MIC ([10]; Mycobacterium tuberculosis, H37Rv): 12.5 µg/mL (≈ 23.1 µM)

SMILES: Cn1c(=O)n(CCOC(=O)CNC(=O)c2ccc([N+](=O)[O-])cc2)c(=O)c2ccccc21
- MIC (Staphylococcus aureus [11]): 4 µg/mL (≈ 9.38 µM)

SMILES: CC[C@@]1(O)C(=O)OCc2c1cc1n(c2=O)Cc2cc3c(CN(C)C)c(O)ccc3nc2-1 [TOPOTECAN]
- IC50 [12]: < 4000 nM

SMILES: COc1cc(/C=C2\CCCc3c2nc(N)nc3-c2cc(OC)c(OC)c(OC)c2)cc(OC)c1OC
- IC50 (Dihydrofolate reductase): 14000 nM

SMILES: COc1cc2nc(/C=C/c3ccccc3Cl)n(-c3ccccc3[N+](=O)[O-])c(=O)c2cc1OC
- ED50 (Mus musculus): 98.2 µmol/kg

SMILES: S=C1NC2=C(CCC/C2=C\C=C\c2ccccc2)C(/C=C/c2ccccc2)N1 (centres undefined)
- inhibition [13]: 100%

SMILES: Cn1c(=O)n(CCOC(=O)CNC(=O)/C=C/c2ccccc2)c(=O)c2ccccc21
- MIC (Staphylococcus aureus [11]): 4 µg/mL (≈ 9.82 µM)
- MIC (Bacillus subtilis): 4 µg/mL (≈ 9.82 µM)

SMILES: CN[C@@H]1[C@H](O[C@H]2[C@H](O[C@H]3[C@H](O)[C@@H](O)[C@H](N=C(N)N)[C@@H](O)[C@@H]3N=C(N)N)O[C@@H](C)[C@]2(O)C=O)O[C@@H](CO)[C@H](O)[C@H]1O [STREPTOMYCIN]
- MIC (Bacillus subtilis): 32 µg/mL (≈ 55 µM)

SMILES: COc1cc(/C=C2\CCCc3c2nc(C)nc3-c2cc(OC)c(OC)c(OC)c2)cc(OC)c1OC
- IC50 (Dihydrofolate reductase): 500 nM

SMILES: CN(C)CCCNc1nc(-c2ccccc2NC(=O)CCN2CCN(C)CC2)nc2ccccc12
- IC50 [14]: 9800 nM
- inhibition at 15 µM (HUVEC [15]): 65.8%
- IC50 (SMMC-7721): 10900 nM
- inhibition at 30 µM (HUVEC [16]): 71.2%
- IC50 [17]: 9300 nM

SMILES: Cn1c(=O)n(CCOC(=O)CNC(=O)c2ccc(F)cc2)c(=O)c2ccccc21
- MIC (Staphylococcus aureus [11]): 4 µg/mL (≈ 10 µM)

SMILES: COc1ccc(/C=C2\CCCc3c2nc(N)nc3-c2ccc(OC)c(OC)c2)cc1OC
- IC50 (Dihydrofolate reductase): 14000 nM

SMILES: C[Se](=O)O [METHYLSELENINIC ACID]
- IC50 [12]: < 8400 nM

SMILES: CC1(C)CC(=O)C2=C(C1)N=C1Sc3ccccc3N1C2c1ccccc1C(F)(F)F (centres undefined)
- GI50 [7]: 900 nM

SMILES: CC1(C)CC(=O)C2=C(C1)N=C1Sc3ccccc3N1C2c1ccc(F)cc1 (centres undefined)
- GI50 [7]: 900 nM

SMILES: Cc1cccc(Oc2nc(-c3ccc(NC(=O)Nc4ccc(Br)cc4)cc3)nc3ccccc23)c1
- inhibition zone (IZ) (Pseudomonas aeruginosa [18]): 25 mm
- inhibition zone (IZ) (Klebsiella pneumoniae [19]): 27 mm
- MIC (Candida albicans): 12.5 µg/mL (≈ 23.8 µM)
- inhibition zone (IZ) (Bacillus cereus [20]): 26 mm
- MIC (Pseudomonas aeruginosa [2]): 25 µg/mL (≈ 47.6 µM)
- inhibition zone (IZ) (Staphylococcus aureus [21]): 29 mm
- MIC (Bacillus cereus [22]): 12.5 µg/mL (≈ 23.8 µM)
- MIC (Staphylococcus aureus [3]): 6.25 µg/mL (≈ 11.9 µM)
- MIC (Klebsiella pneumoniae [23]): 12.5 µg/mL (≈ 23.8 µM)

SMILES: Clc1cc(Nc2ncnc3ccc(NC4=NC[C@@H](COc5ccccc5)O4)cc23)ccc1OCc1nccs1
- IC50 [6]: 950 nM

SMILES: COc1ccc(/C=C2\CCCc3c2nc(C)nc3-c2ccc(OC)c(OC)c2)cc1OC
- IC50 (Dihydrofolate reductase): 100 nM

SMILES: Cn1c(=O)n(CCOC(=O)CNC(=O)c2ccco2)c(=O)c2ccccc21
- MIC (Bacillus subtilis): 4 µg/mL (≈ 10.8 µM)

SMILES: COc1ccc(C(=O)NCC(=O)OCCn2c(=O)c3ccccc3n(C)c2=O)cc1
- MIC (Bacillus subtilis): 4 µg/mL (≈ 9.72 µM)

SMILES: O=C1NC2=C(CCC/C2=C\C=C\c2ccccc2)C(/C=C/c2ccccc2)N1 (centres undefined)
- inhibition [24]: 50%
- inhibition [25]: 100%

SMILES: O=c1c2ccccc2ncn1/N=C/c1ccc(O)c(O)c1O
- IC50 [26]: 140 nM
- IC50 [27]: 320 nM
- IC50 [28]: 79 nM
